Article PMC2947157, “Development of a FLIPR Assay for the Simultaneous Identification of MrgD Agonists and Antagonists from a Single Screen” (Journal of Biomedicine and Biotechnology, 2010)
Values joined by “and” are separate entries in the source; they are usually repeats but may differ in a detail not shown here. Identical values can stand only once. Counter-ions that a name gives are not always drawn. Like-named read-outs stand apart in the source and are kept apart here.

What was measured:
MrgD [1] = target: T1, MrgD (Homo sapiens, UniProt Q8TDS7); assay: Calcium mobilization FLIPR assay, agonist dose-response, CHO-DUKX cells expressing human MrgD; type: cell-based; conditions: for FLIPR response in human MrgD expressing cells: result in words
T1 construct: expressed in transfected cells
Protocol: (§1) A Kozak sequence and HA epitope tag were incorporated in the forward primer. […] A Kozak sequence and c-Myc epitope tag were incorporated in the forward primer. The resulting PCR products were cloned into the Xba I and EcoR I sites of pHTOP vector, a proprietary derivative of the pED expression vector [12]. For transfection, CHO-DUKX-A2 cells (DHFR(−) CHO cell line stably expressing the tetracycline transactivator) were grown in M alpha media containing 1% MEM nonessential amino acids solution (NEAA), 10% fetal bovine serum (FBS), and 500 ug/mL G418. MrgDpHTOP was transfected using Lipofectamine Plus reagents as per the manufacturer's recommendations. Antibiotic selection was performed using Dulbecco's modified Eagle medium supplemented with 10% FBS, 100 units/mL penicillin, 100 μg/mL streptomycin, 1% NEAA, and 20 nM methotrexate (Calbiochem, San Diego, CA). Cell lines were maintained at 37°C in a humidified atmosphere containing 5% CO2. Surviving colonies were expanded further and used for functional analysis. Clones of human MrgD expressing cell lines were evaluated initially for MrgD transcript level by Taqman analysis and normalized against the house-keeping gene GAPDH (Glyceraldehyde-3-phosphate dehydrogenase).
(§2) CHO-DUKX-A2 cells stably expressing human or rat MrgD were plated in 384-well tissue-culture-treated polystyrene black clear flat-bottom assay plates (BD Biosciences, San Jose, CA). Thirty μL of 8 × 10^5 cells/mL (24,000 cells/well) were plated and maintained for ~24 hrs at 37°C in a humidified atmosphere containing 5% CO2. After removal of the growth medium, cells were incubated with 30 μL of Ca3 dye (Molecular Devices Corporation, Sunnyvale, CA) containing 2.5 mM freshly prepared probenecid made according to the manufacturer's protocol. Agonists were prepared in 1x Hanks balanced salt solution (HBSS) buffer with 20 mM HEPES buffer. Changes in intracellular Ca^2+ were monitored using the Fluorometric Imaging Plate Reader (FLIPR; Molecular Devices, Sunnyvale, CA). For the double addition protocols, compounds were added by the FLIPR, and readings were taken for 3 min, followed by the addition of the agonist. The change in intracellular calcium [Ca^2+] was monitored as an increase in relative fluorescence units (RFUS), and the difference between maximum and minimum RFU was used to calculate dose-response curves. Data analysis was performed using PRISM 4.0 (GraphPAD Software Inc.). For the LOPAC screen, cells were plated in 96-well tissue-culture-treated polystyrene black clear flat-bottom assay plates (BD Biosciences, San Jose, CA). One hundred μL of cells (40,000 cells/well) were plated and maintained under the same conditions as above. For the assay, growth medium was replaced with 90 μL of Ca3 dye containing 2.5 mM freshly prepared probenecid. The FLIPR added 10 μL of beta-alanine at 100 μM final concentration. For antagonist dose-response assays, the cells were incubated with the compounds for ~30 minutes after which beta-alanine at a final concentration of 10 μM was added by the FLIPR.
Target sequence in this assay (Q8TDS7 whole entry): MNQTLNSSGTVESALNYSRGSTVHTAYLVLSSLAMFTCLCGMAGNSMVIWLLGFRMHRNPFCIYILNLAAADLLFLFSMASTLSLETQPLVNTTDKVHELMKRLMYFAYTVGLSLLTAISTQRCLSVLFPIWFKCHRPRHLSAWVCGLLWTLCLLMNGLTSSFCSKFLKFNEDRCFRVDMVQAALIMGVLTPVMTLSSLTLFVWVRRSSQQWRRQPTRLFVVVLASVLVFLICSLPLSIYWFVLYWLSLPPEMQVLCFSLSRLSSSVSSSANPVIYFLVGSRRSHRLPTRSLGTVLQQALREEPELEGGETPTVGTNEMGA

rat MrgD = target: T2, rat MrgD (Rattus norvegicus, UniProt Q7TN41); assay: Calcium mobilization FLIPR assay, agonist dose-response, CHO-DUKX cells expressing rat MrgD; type: cell-based; conditions: for EC50 / EC50 Rat MrgD: CHO-DUKX cells, FLIPR, Table 1: mean ± SD from 2–6 independent experiments; for FLIPR response in rat MrgD expressing cells: result in words
T2 construct: expressed in transfected cells
T2 sequence (Q7TN41 1-319): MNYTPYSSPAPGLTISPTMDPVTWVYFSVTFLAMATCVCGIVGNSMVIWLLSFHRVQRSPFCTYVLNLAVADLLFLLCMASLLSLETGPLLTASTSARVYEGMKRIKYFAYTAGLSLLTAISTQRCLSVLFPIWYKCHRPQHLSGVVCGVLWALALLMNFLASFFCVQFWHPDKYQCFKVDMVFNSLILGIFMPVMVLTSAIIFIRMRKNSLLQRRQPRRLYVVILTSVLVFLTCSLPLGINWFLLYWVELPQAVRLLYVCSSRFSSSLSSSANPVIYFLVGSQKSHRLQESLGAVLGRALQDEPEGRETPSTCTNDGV
Protocol: as §1, §2

[2] = system: MrgD expressing cell lines; conditions: read-out: EC50 for MrgD expressing cell lines, cited from earlier work
MrgD [3] = target: T1, MrgD; assay: Dual-addition FLIPR LOPAC library screen (test compound, then beta-alanine); type: cell-based; conditions: dual-addition format; for Calcium mobilization following addition of beta-alanine (addition 2) in LOPAC screen: beta-alanine 100 μM, Figure 4(b)
Protocol: as §2
Target sequence in this assay (Q8TDS7 whole entry, species assumed): as the sequence (Q8TDS7 whole entry) above
We developed an assay that could allow both agonists and antagonists to be distinguished in a single screen. Employing such an assay format should enable the identification of tool compounds that may help in elucidating the role of MrgD in pain. The diagram in Figure 3 describes the dual-addition assay format where addition of the test compound (addition 1) is followed by the addition of beta-alanine (addition 2). A FLIPR response immediately upon the addition of a test compound would indicate its activity as an agonist. On the other hand, if the compound behaves as an antagonist, not only will there be a lack of response to this test compound, it will also attenuate the effects of the subsequent addition of beta-alanine. In the event of no receptor engagement by the test compound, a normal agonist response will be observed to beta-alanine. We validated this assay format, which was robust and consistent with a Z′ factor greater than 0.7.
Figure 3 Assay format for the identification of an agonist and antagonist from a single screen. Test compound is added first followed by a second addition of beta-alanine. An agonist will induce a FLIPR response immediately upon the addition of a test compound. An antagonist will cause a pharmacological blockade of the MrgD receptor resulting in attenuation or complete lack of response to beta-alanine. In the event of no receptor engagement, a normal agonist response will be observed from beta-alanine addition.
Figure 4 Representative FLIPR traces obtained from LOPAC screen. Compounds from the LOPAC library were applied followed by the addition of beta-alanine. […]

MrgD [4] = target: T1, MrgD; assay: FLIPR antagonist dose-response assay against beta-alanine; type: cell-based; conditions: beta-alanine 10 μM, ~30 min preincubation
Protocol: as §2
Target sequence in this assay (Q8TDS7 whole entry, species assumed): as the sequence (Q8TDS7 whole entry) above

[5] = system: beta-alanine-induced calcium mobilization in MrgD CHO-DUKX cells; assay: Evaluation of Gi and Gq coupling of MrgD by FLIPR response to beta-alanine; type: cell-based; conditions: 100 μM beta-alanine
Protocol: MrgD is known to couple through both Gi and Gq. To further explore the utility of the cell line for a potential secondary assay measuring cAMP, we investigated whether the FLIPR assay was capable of distinguishing the extent of Gi and Gq coupling of MrgD. MrgD CHO-DUKX cells were treated with either the Gi inhibitor pertussis toxin (PTX) overnight or the phospholipase C (PLC) inhibitor U-73122 for 30 or 60 minutes and then evaluated for their responses to beta-alanine.
Figure 2 Evaluation of Gq (Figure 2(a)) and Gi (Figure 2(b)) coupling of MrgD receptors assessed using FLIPR response. MrgD cells were pretreated with the PLC inhibitor (U-73122 at 2 μM for 30 or 60 minutes) or pertussis toxin (100 ng overnight) for blocking Gi coupling to MrgD. FLIPR responses were evaluated by the addition of 100 μM beta-alanine.

[6] = CHO-DUKX cells, FLIPR, Table 1: mean ± SD from 2–6 independent experiments, read-out: EC50 Human MrgD
[7] = HA 966 racemate and enantiomers, species not stated at place, racemate value equals human MrgD value of Table 2, read-out: EC50 as MrgD agonist (Figure 5(a))
[8] = CHO-DUKX cells, FLIPR, Table 1: mean ± SD from 2–6 independent experiments
[9] = unit inferred, read-out: IC50 as MrgD antagonist (dose response analysis)

For “5, 7 dihydroxytryptamine creatinine sulfate”, the EC50 (MrgD [1]; [6]) was 5.2 µM and the EC50 (rat MrgD) was 9.7 µM.

Work on `NC1CCN(O)C1=O` (racemic) [(±) HA 966] yielded an EC50 (MrgD [1]; [6]) of 11 µM and an EC50 (rat MrgD) of 13.2 µM.

`NC1CCN(O)C1=O` (single isomer, unassigned; (+)) [(+) HA 966] gave an EC50 (MrgD [1]; [7]) of 106 µM.

For `NC1CCN(O)C1=O` (single isomer, unassigned; (-)) [(−) HA 966], the EC50 (MrgD [1]; [7]) was 5.5 µM.

In the case of `NCCC(=O)O` [Beta-alanine], the EC50 (MrgD [1]; [6]) is given as 1 to 4 µM and 3.76 µM, the EC50 (rat MrgD) is given as 1 to 4 µM and 3.77 µM and the EC50 ([2]; ref 9) is given as 15 ± 1 µM. For the same compound, the EC50 ([2]; ref 11) was 8.6 µM.

In the case of `NCCCC(=O)O` [GABA, gamma-aminobutyric acid], the EC50 (MrgD [1]; [6]) is reported as 53 ± 26 µM, the “FLIPR response in human MrgD expressing cells” value (MrgD [1]) is reported as “weakly stimulated” and the EC50 (rat MrgD) is reported as 49.8 ± 1.5 µM. The “FLIPR response in rat MrgD expressing cells” value (rat MrgD) was “weakly stimulated” and the “Response to test compound (addition 1) in LOPAC screen” value (MrgD [3]; Figure 4(a)) was “evoked a response”.

With `NCC1(CC(=O)O)CCCCC1` [Gabapentin] the “EC50 Human MrgD” value (MrgD [1]; [8]) was “No effect”, the “FLIPR response in human MrgD expressing cells” value (MrgD [1]) was “failed to induce a response” and the “EC50 Rat MrgD” value (rat MrgD) was “No effect”. For the same compound, the “FLIPR response in rat MrgD expressing cells” value (rat MrgD) was “failed to induce a response”.

For `NCC(=O)O` [Glycine], the EC50 (MrgD [1]; [6]) was over 100 µM, the “FLIPR response in human MrgD expressing cells” value (MrgD [1]) was “not” and the EC50 (rat MrgD) was over 100 µM. For the same compound, the “FLIPR response in rat MrgD expressing cells” value (rat MrgD) was “not”.

For `CC(C)C[C@H](CN)CC(=O)O` [Pregabalin], the “EC50 Human MrgD” value (MrgD [1]; [8]) was “No effect”, the “FLIPR response in human MrgD expressing cells” value (MrgD [1]) was “failed to induce a response” and the “EC50 Rat MrgD” value (rat MrgD) was “No effect”. For the same compound, the “FLIPR response in rat MrgD expressing cells” value (rat MrgD) was “failed to induce a response”.

For `CCCN1CCc2cccc3c2[C@H]1Cc1ccc(O)c(O)c1-3.Cl` [R(−)-Propylnorapomorphine hydrochloride], the IC50 (MrgD [4]; [9]) was 1460 nM and the “Calcium mobilization following addition of beta-alanine (addition 2) in LOPAC screen” value (“Calcium mobilization following addition” below) (MrgD [3]) was “attenuation or complete absence of calcium mobilization”.

In the case of `COc1ccc2c(c1)CC[C@@H]1[C@@H]2CC[C@]2(C)[C@@H](NCCCCCCN3C(=O)C=CC3=O)CC[C@@H]12` [U-73122], the “Effect on FLIPR response to beta-alanine” value ([5]; U-73122 at 2 μM for 30 or 60 minutes) is reported as “completely blocked”.

Work on `CCCn1c(=O)c2[nH]c(-c3ccc(OCC(=O)NCCN)cc3)nc2n(CCC)c1=O` [Xanthine amine congener] yielded an EC50 (MrgD [1]; [6]) of over 100 µM and an EC50 (rat MrgD) of 48.3 µM.

With `CN(C)CCCN1c2ccccc2Sc2ccc(Cl)cc21` [chlorpromazine hydrochloride] the IC50 (MrgD [4]; read-out: IC50 as MrgD antagonist (Figure 5 legend)) was 2700 nM and the “Calcium mobilization following addition” value (MrgD [3]) was “attenuation or complete absence of calcium mobilization”.

For `CN[C@@H]1C[C@@H](c2ccc(Cl)c(Cl)c2)c2ccccc21` [indatraline hydrochloride], the “Calcium mobilization following addition” value (MrgD [3]) was “attenuation or complete absence of calcium mobilization”.

In the case of `CSc1ccc2c(c1)N(CCC1CCCCN1C)c1ccccc1S2` (centres unmarked) [thioridazine hydrochloride], the IC50 (MrgD [4]; [9]) is reported as 1060 nM and the “Calcium mobilization following addition” value (MrgD [3]) is reported as “attenuation or complete absence of calcium mobilization”.

For pertussis toxin [PTX], the “Reduction in calcium mobilization” value ([5]; pertussis toxin 100 ng overnight) was about 50%.
